For the test, the system named is CD2F1 mice, ip Colon 26 adenocarcinoma, median survival T/C. The experiment in a line: NCI In Vivo Anticancer Drug Screen. Data for tumor model Colon 26 Adenocarcinoma (intraperitoneal) in CD2F1 (CDF1) mice. To be noted: endpoint: median survival time, higher = longer survival. The procedure: The antitumor activity of compounds was measured in mice bearing transplantable tumors. Survival or tumor size were measured and the results are expressed as the measurement made in the treated group (T) divided by the measurement made in the vehicle treated control group (C). The tumor model used in this assay is Colon 26 Adenocarcinoma (intraperitoneal) in CD2F1 (CDF1) mice

The mark [1] stands for this setting: dose: 12.5 mg/kg/injection, schedule: Q04DX003 (ip), vehicle: Klucel (hydroxypropylcellulose) (HPC).
Where [2] appears, read: dose: 25.0 mg/kg/injection, schedule: Q04DX003 (ip), vehicle: Klucel (hydroxypropylcellulose) (HPC).
Where [3] appears, read: dose: 100.0 mg/kg/injection, schedule: Q04DX002 (ip), vehicle: distilled water + Tween-80.
The mark [4] stands for this setting: dose: 200.0 mg/kg/injection, schedule: Q04DX002 (ip), vehicle: distilled water + Tween-80.
Where [5] appears, read: dose: 25.0 mg/kg/injection, schedule: Q04DX003 (ip), vehicle: saline with Tween-80.
[6] abbreviates: dose: 50.0 mg/kg/injection, schedule: Q04DX003 (ip), vehicle: saline with Tween-80.
[7] abbreviates: dose: 100.0 mg/kg/injection, schedule: Q04DX003 (ip), vehicle: saline with Tween-80.

Inconclusive results and toxic doses are left out.

Regarding `COc1cccc2c1C(=O)c1c(O)c3c(c(O)c1C2=O)C[C@@](O)(/C(C)=N\O)C[C@@H]3OC1CC(N)C(O)C(C)O1` (stereo partly drawn), the T/C (dose: 10.0 mg/kg/injection, schedule: Q07DX002 (ip), vehicle: saline) is 105 % of control; the T/C (dose: 15.0 mg/kg/injection, schedule: Q07DX002 (ip), vehicle: saline) is 110 % of control; the T/C (dose: 23.0 mg/kg/injection, schedule: Q07DX002 (ip), vehicle: saline) was 115 % of control; the T/C (dose: 35.0 mg/kg/injection, schedule: Q07DX002 (ip), vehicle: saline) was 119 % of control.
As to `CC1CC(C)CC(C)C(O)/C(C#N)=C/C=C/CC(C2CCCC2C(=O)O)OC(=O)CC(O)C(C)C1` (stereo not drawn), the T/C (dose: 0.5 mg/kg/injection, schedule: Q04DX003 (ip), vehicle: saline) was 103 % of control; the T/C (dose: 1.0 mg/kg/injection, schedule: Q04DX003 (ip), vehicle: saline) is 105 % of control; the T/C (dose: 2.0 mg/kg/injection, schedule: Q04DX003 (ip), vehicle: saline) is 100 % of control.
As to `Cc1ccc(C(=O)[O][Hg][CH2]C2COC([CH2][Hg][O]C(=O)c3ccc(C)cc3)CO2)cc1` (stereo not drawn), the T/C reads like this: under setting [1], 104 % of control; under setting [2], 92 % of control.
Regarding `ClCCCCCCCCCCc1ccccc1`, the T/C was 102 % of control under setting [1]; 106 % of control under setting [2]; 100 % of control (dose: 50.0 mg/kg/injection, schedule: Q04DX003 (ip), vehicle: Klucel (hydroxypropylcellulose) (HPC)); 100 % of control (dose: 100.0 mg/kg/injection, schedule: Q04DX003 (ip), vehicle: Klucel (hydroxypropylcellulose) (HPC)); 106 % of control (dose: 200.0 mg/kg/injection, schedule: Q04DX003 (ip), vehicle: Klucel (hydroxypropylcellulose) (HPC)); 114 % of control (dose: 400.0 mg/kg/injection, schedule: Q04DX003 (ip), vehicle: Klucel (hydroxypropylcellulose) (HPC)).
`CC1(C(=O)O)C(O)CCC2(C)C1CCC1CC3CC12CCC3(O)CO` (stereo not drawn): the T/C was 92 % of control (dose: 2.5 mg/kg/injection, schedule: Q04DX002 (ip), vehicle: saline with Tween-80); 98 % of control (dose: 5.0 mg/kg/injection, schedule: Q04DX002 (ip), vehicle: saline with Tween-80); 106 % of control (dose: 10.0 mg/kg/injection, schedule: Q04DX002 (ip), vehicle: saline with Tween-80); 95 % of control (dose: 20.0 mg/kg/injection, schedule: Q04DX002 (ip), vehicle: saline with Tween-80); 100 % of control (dose: 40.0 mg/kg/injection, schedule: Q04DX002 (ip), vehicle: saline with Tween-80); 101 % of control (dose: 80.0 mg/kg/injection, schedule: Q04DX002 (ip), vehicle: saline with Tween-80). In addition, the T/C under setting [3] is 94 % of control and the T/C under setting [4] was 97 % of control.
With `CC(=O)Oc1ccccc1C(=O)O`, the T/C (dose: 72.0 mg/kg/injection, schedule: Q04DX002 (ip), vehicle: saline with Tween-80) was 89 % of control.
Regarding `Cc1cc(=O)n2c3c(c4c(cc13)c(CN(C)C)cc(=O)n4C)OC2`, the T/C runs as follows: (dose: 6.25 mg/kg/injection, schedule: Q04DX002 (ip), vehicle: saline with Tween-80) 99 % of control; (dose: 12.5 mg/kg/injection, schedule: Q04DX002 (ip), vehicle: saline with Tween-80) 99 % of control; (dose: 25.0 mg/kg/injection, schedule: Q04DX002 (ip), vehicle: saline with Tween-80) 107 % of control; (dose: 50.0 mg/kg/injection, schedule: Q04DX002 (ip), vehicle: saline with Tween-80) 102 % of control.
Consider `COc1cccc2c1C(=O)c1c(O)c3c(c(O)c1C2=O)C[C@@](O)(C(C)=O)C[C@@H]3OC1CC(O)C(O)C(C)O1` (stereo partly drawn), for which the T/C (dose: 31.0 mg/kg/injection, schedule: Q07DX002 (iv), vehicle: saline) was 108 % of control.
For the compound `CCSC(=O)N1c2ccc(OC)cc2C=CC1C#N` (stereo not drawn), the T/C by setting is: (dose: 12.5 mg/kg/injection, schedule: Q04DX003 (ip), vehicle: saline with Tween-80) 106 % of control; under setting [5], 104 % of control; under setting [6], 110 % of control; under setting [7], 107 % of control; (dose: 175.0 mg/kg/injection, schedule: Q04DX002 (ip), vehicle: saline with Tween-80) 110 % of control; (dose: 200.0 mg/kg/injection, schedule: Q04DX003 (ip), vehicle: saline with Tween-80) 109 % of control. The T/C reads like this: (dose: 350.0 mg/kg/injection, schedule: Q04DX002 (ip), vehicle: saline with Tween-80) 124 % of control; (dose: 400.0 mg/kg/injection, schedule: Q04DX003 (ip), vehicle: saline with Tween-80) 115 % of control; (dose: 700.0 mg/kg/injection, schedule: Q04DX002 (ip), vehicle: saline with Tween-80) 100 % of control; (dose: 1400.0 mg/kg/injection, schedule: Q04DX002 (ip), vehicle: saline with Tween-80) 98 % of control.
For `CC/C(=C(/CC)c1ccc(O)cc1)c1ccc(O)cc1`, the T/C is 91 % of control under setting [5], 103 % of control under setting [6] and 89 % of control under setting [7].
On to `C[C@@]1(CO)[C@@H](O)CC[C@@]2(C)[C@H]1CC[C@H]1C[C@@H]3CC12CC[C@]3(O)CO`, for which the T/C (dose: 12.5 mg/kg/injection, schedule: Q04DX002 (ip), vehicle: distilled water + Tween-80) is 103 % of control; the T/C (dose: 25.0 mg/kg/injection, schedule: Q04DX002 (ip), vehicle: distilled water + Tween-80) was 109 % of control; the T/C (dose: 50.0 mg/kg/injection, schedule: Q04DX002 (ip), vehicle: distilled water + Tween-80) is 95 % of control; the T/C under setting [3] is 109 % of control; the T/C under setting [4] is 91 % of control; the T/C (dose: 400.0 mg/kg/injection, schedule: Q04DX002 (ip), vehicle: distilled water + Tween-80) was 116 % of control.
Turning to `O=C(O)c1c2c(nc3ccccc13)Cc1ccccc1-2`, the T/C by setting is: (dose: 12.5 mg/kg/injection, schedule: Q04DX002 (ip), vehicle: water) 97 % of control; (dose: 25.0 mg/kg/injection, schedule: Q04DX002 (ip), vehicle: water) 113 % of control; (dose: 100.0 mg/kg/injection, schedule: Q04DX002 (ip), vehicle: water) 105 % of control.
On to `CS(=O)(=O)OCCCNCCCOS(C)(=O)=O`, for which the T/C was 194 % of control (dose: 18.75 mg/kg/injection, schedule: Q04DX003 (ip), vehicle: saline); 241 % of control (dose: 37.5 mg/kg/injection, schedule: Q04DX003 (ip), vehicle: saline); 338 % of control (dose: 75.0 mg/kg/injection, schedule: Q04DX003 (ip), vehicle: saline); 338 % of control (dose: 150.0 mg/kg/injection, schedule: Q04DX003 (ip), vehicle: saline).
As for `CCC1CN2C(=N1)c1ccccc1-c1cc(Cl)ccc12` (stereo not drawn), the T/C runs as follows: (dose: 2.5 mg/kg/injection, schedule: Q04DX003 (ip), vehicle: saline) 102 % of control; (dose: 2.5 mg/kg/injection, schedule: Q04DX003 (ip), vehicle: suspension in saline) 107 % of control; (dose: 5.0 mg/kg/injection, schedule: Q04DX003 (ip), vehicle: saline) 111 % of control; (dose: 5.0 mg/kg/injection, schedule: Q04DX003 (ip), vehicle: suspension in saline) 101 % of control; (dose: 10.0 mg/kg/injection, schedule: Q04DX003 (ip), vehicle: saline) 92 % of control; (dose: 10.0 mg/kg/injection, schedule: Q04DX003 (ip), vehicle: suspension in saline) 106 % of control. Also, the T/C by setting is: (dose: 40.0 mg/kg/injection, schedule: Q04DX003 (ip), vehicle: saline) 121 % of control; (dose: 40.0 mg/kg/injection, schedule: Q04DX003 (ip), vehicle: suspension in saline) 124 % of control.
On to `COc1cc([C@@H]2c3cc4c(cc3[C@@H](OC3OC5COC(C)OC5C(O)C3O)[C@H]3COC(=O)[C@H]23)OCO4)cc(OC)c1O` (stereo partly drawn), for which the T/C (dose: 25.0 mg/kg/injection, schedule: Q03DX002 (ip), vehicle: other) was 103 % of control; the T/C (dose: 32.0 mg/kg/injection, schedule: Q04DX003 (ip), vehicle: saline) is 151 % of control; the T/C (dose: 40.0 mg/kg/injection, schedule: Q03DX002 (ip), vehicle: other) is 120 % of control; the T/C (dose: 60.0 mg/kg/injection, schedule: Q03DX002 (ip), vehicle: other) was 107 % of control; the T/C (dose: 64.0 mg/kg/injection, schedule: Q04DX003 (ip), vehicle: saline) was 193 % of control.
